# Reference: US20010016731A1, “Methods and apparatus for accelerated orthokeratology” (priority 1998, published 2001)
# Experiments:
# [1] = system: enucleated pig eyes (cornea)
# [2] = system: enucleated pig eyes (cornea); assay: Experiment 2: enucleated pig eyes, EYESYS topographical mapping and slit lamp; settings: 0.3M sodium persulfate, UV about 30 seconds
# Description: Second set of experiments also using enucleated pig eyes. an EYESYS topographical system was available to perform topographical mapping of the eyes before and after treatment. In addition, the EFOS Ultracure 100SS was available for UV light treatment. In a control part of the experiment, an eye was examined using a slit lamp and using the EYESYS system. Neither glutaric anhydride nor sodium persulfate were administered prior to application of UV light exposure. However, buffers were administered to simulate full treatment. […] In a second part of the experiment, a second pig eye was examined by slit lamp, and EYESYS. Topographical profiles were printed. The eye was them soaked in phosphate buffer at pH 8.5 for 2 minutes. Glutaric anhydride at 10 mg/ml was prepared in an alcohol solution and immediately administered to the eye. A contact lens was applied to the eye and held in place for 1 minute. The eye was then soaked in a sodium persulfate solution (0.3M sodium persulfate in pH 8.5 buffer) with the lens still in place. After several one (1) minute soaks in the sodium persulfate solution, the eye was exposed to UV light for about 30 seconds. The lens was removed and the eye washed with phosphate buffer, pH 7.2. The eye was then examined by slit lamp and EYESYS. […] In a third part of the experiment, a third eye was treated the same as above, expect that the glutaric anhydride was delivered in a phosphate buffer, pH 8.5, in an attempt to prevent the clouding observed using alcohol.
# rabbit's eyes (cornea) = assay: Experiment 3: live rabbit eye, EYESYS topography and slit-lamp; assay type: in vivo; settings: glutaric anhydride 20 mg/ml in pH 8.5 phosphate buffer, contact lens, 0.3M sodium persulfate, UV two 30 second bursts
# Description: Third set of experiments using a live rabbit. Both the EYESYS topographical system and EFOS Ultracure 100SS were available. The rabbit's eyes were examined by slit-lamp and EYESYS. Topographical profiles were printed. The control eye was left untreated. The experimental eye was exposed to 0.02M phosphate buffer, pH 8.5, and treated with glutaric anhydride at 20 mg/ml in pH 8.5 phosphate buffer followed by application of a contact lens. The eye was then washed with 0.02M phosphate buffer, pH 8.5 to remove residual glutaric acid, soaked with buffer containing 0.3M sodium persulfate and exposed to UV light for two 30 second bursts with the contact lens in place. Both the control and treated eyes were examined by slit-lamp and EYESYS. Topographical profiles were printed.
# [3] = contact lens without destabilization, sodium persulfate solution then UV about 30 seconds
# [4] = glutaric anhydride 10 mg/ml in alcohol solution, contact lens 1 minute
Structure (SMILES),"persistence of ridge created by the contact lens [1, 3]","slit-lamp appearance of eyes after treatment [1, 3]","EYESYS examination (eye topography) [2, 4]","slit lamp examination (corneal clouding) [2, 4]","EYESYS examination (eye topography) ([2]; glutaric anhydride delivered in phosphate buffer pH 8.5, contact lens)","slit lamp examination (corneal clouding) ([2]; glutaric anhydride delivered in phosphate buffer pH 8.5, contact lens, compared with alcohol solution)",slit-lamp examination of treated eye (rabbit's eyes (cornea)),surface topography of treated eye (EYESYS) (rabbit's eyes (cornea)),time for corneal haze to clear (rabbit's eyes (cornea)),"indentations and ridges created by the lens ([1]; 10 mg/ml glutaric anhydride 1 minute, contact lens, 0.3M sodium persulfate, UV 20 seconds)","K-readings after UV treatment ([1]; 10 mg/ml glutaric anhydride 1 minute, contact lens, 0.3M sodium persulfate, UV 20 seconds, pretreatment 36.75/37.5)"
O=S(=O)([O-])OOS(=O)(=O)[O-].[Na+].[Na+] [sodium persulfate],visible after 1 hour,clear,–,–,–,–,–,–,–,–,–
O=C1CCCC(=O)O1 [glutaric anhydride],–,–,eye topography had been changed,some cloudiness,topographical changes appearing to match the curvature of the applied contact lens,much less corneal clouding,some corneal haze,obvious change in surface topography,about 1 hour,observed immediately post-treatment and 1 hour after treatment,too steep to read and rather distorted
